In patent US20230159537A1, “COMPOUND, PREPARATION METHOD THEREOF, AND USE THEREOF IN PREPARATION OF ANTI-CANCER DRUG” (TIANJIN JIKUN MEDICAL TECHNOLOGY CO., LTD., priority 2020, published 2023):

Tests used:
FGFR3 = molecular target: T1, FGFR3 (Homo sapiens, UniProt P22607); experiment: HTRF enzyme activity test, FGFR3; type: biochemical
T1 construct: made in house; host or cells: Escherichia coli
Description: In the present disclosure, the homogeneous time-resolved fluorescence (HTRF) technology was used to evaluate an inhibitory effect of a compound on the four subtypes FGFR1, FGFR2, FGFR3, and FGFR4. FGFR1, FGFR2, FGFR3, and FGFR4 prokaryotic expression vectors were first constructed; and when the prokaryotic expression vectors were identified as correct, FGFR proteins were expressed and purified on a large scale in an Escherichia coli (E. coli) system, and protein concentrations were determined. Resulting proteins were stored in aliquots. Before an enzyme activity test was started, cisbio HTRF KinEA (62TK0PEB) was used to pre-dilute each component required in an enzyme activity system with an enzyme activity buffer to a required working concentration. A 384-well plate (66PL384025) was prepared, 5 μL of a protein solution, 1 μL of a compound, and 2 μL of a substrate were added to each well, and 2 μL of ATP was finally added to initiate a reaction. Three parallel experiments were set for each concentration. […] The 384-well plate was sealed and incubated at room temperature for about 1 h. […] Finally, the TECAN infinite M1000PRO multi-function microplate reader was used to detect a fluorescence signal, an inhibition rate was calculated, and an IC50 value was fitted with GraphPad Prism 7.0.

Huh-7 = experiment: MTT cell proliferation assay, Huh-7; type: cell-based; conditions: tumor cells with normal FGFR expression (Huh-7, A549 of Table 2)
A549 = experiment: cells; conditions: Homo sapiens, A549, 96 h, read-out: Anti-proliferation IC50 A549

T1 sequence (P22607 23-806): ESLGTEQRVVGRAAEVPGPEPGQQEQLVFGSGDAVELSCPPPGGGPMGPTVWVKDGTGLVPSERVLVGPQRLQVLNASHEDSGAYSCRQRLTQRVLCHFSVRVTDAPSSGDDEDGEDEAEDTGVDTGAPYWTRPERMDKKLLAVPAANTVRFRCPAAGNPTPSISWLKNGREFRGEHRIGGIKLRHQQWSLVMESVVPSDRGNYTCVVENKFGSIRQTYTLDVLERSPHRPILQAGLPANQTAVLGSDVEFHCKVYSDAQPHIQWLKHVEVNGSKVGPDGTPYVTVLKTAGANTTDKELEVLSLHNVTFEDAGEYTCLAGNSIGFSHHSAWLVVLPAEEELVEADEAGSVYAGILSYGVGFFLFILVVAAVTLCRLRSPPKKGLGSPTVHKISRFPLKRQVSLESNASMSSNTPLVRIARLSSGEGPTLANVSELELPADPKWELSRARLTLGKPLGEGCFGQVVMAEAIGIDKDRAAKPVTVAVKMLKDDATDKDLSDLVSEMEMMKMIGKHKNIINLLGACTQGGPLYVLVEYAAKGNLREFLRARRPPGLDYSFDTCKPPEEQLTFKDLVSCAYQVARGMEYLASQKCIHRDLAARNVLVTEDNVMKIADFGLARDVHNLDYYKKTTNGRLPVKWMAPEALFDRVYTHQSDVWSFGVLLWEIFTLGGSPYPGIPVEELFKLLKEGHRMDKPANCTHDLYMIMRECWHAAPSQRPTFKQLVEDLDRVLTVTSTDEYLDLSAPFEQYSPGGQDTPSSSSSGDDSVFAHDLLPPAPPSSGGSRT

IC50 (FGFR3) [nM]	IC50 (A549) [µM]	Structure (SMILES)	inhibitory effect on tumor cells with normal FGFR expression (in words) (Huh-7)
> 5000	–	C=CC(=O)N1CCN(CCCCCn2nc(-c3cccc(OCc4ccccc4)c3)c3c(N)ncnc32)CC1 [Compound 26]	–
–	> 10	COc1cc(OC)cc(-c2nn(CCCCCN3CCN(C(=O)/C=C/C(F)(F)F)CC3)c3ncnc(N)c23)c1 [Compound 36]	no obvious inhibitory effect
